Reference: PubChem BioAssay AID1963864 (Molecular Pharmacology Branch, DTP, NCI, 2024)

Tested on: KRAS PDC multicell spheroid viability
Experiment: Anticancer human tumor 521955-158-R6-J3-PDC patient-derived pancreatic carcinoma cell line growth inhibition [KRAS2]
Conditions: for IC50: curve of first compound; for viability, T/C: stronger effect = lower value
Method in brief: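 Combination screen of spheroid viability in tumor-cell co-cultures with endothelial (HUVEC) and mesenchymal stem cell stroma. Each agent was tested in half-log dilutions, topping at clinical Cmax or at 10 microM without a known Cmax.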

[1] = second compound 0.1 µM, first compound 0.01 µM
[2] = second compound 0.1 µM, first compound 0.0316 µM
[3] = second compound 0.1 µM, first compound 0.1 µM
[4] = second compound 0.1 µM, first compound 0.316 µM
[5] = second compound 0.1 µM, first compound 1 µM
[6] = second compound 0.1 µM, first compound 3.16 µM
[7] = second compound 0.316 µM, first compound 0.01 µM
[8] = second compound 0.316 µM, first compound 0.0316 µM
[9] = second compound 0.316 µM, first compound 0.1 µM
[10] = second compound 0.316 µM, first compound 0.316 µM
[11] = second compound 0.316 µM, first compound 1 µM
[12] = second compound 0.316 µM, first compound 3.16 µM
[13] = second compound 1 µM, first compound 0.01 µM
[14] = second compound 1 µM, first compound 0.0316 µM
[15] = second compound 1 µM, first compound 0.1 µM
[16] = second compound 1 µM, first compound 0.316 µM
[17] = second compound 1 µM, first compound 1 µM
[18] = second compound 1 µM, first compound 3.16 µM
[19] = second compound 3.16 µM, first compound 0.01 µM
[20] = second compound 3.16 µM, first compound 0.0316 µM
[21] = second compound 3.16 µM, first compound 0.1 µM
[22] = second compound 3.16 µM, first compound 0.316 µM
[23] = second compound 3.16 µM, first compound 1 µM
[24] = second compound 3.16 µM, first compound 3.16 µM
[25] = second compound 10 µM, first compound 0.0316 µM
[26] = second compound 10 µM, first compound 0.1 µM
[27] = second compound 10 µM, first compound 0.316 µM
[28] = second compound 10 µM, first compound 1 µM
[29] = second compound 10 µM, first compound 3.16 µM
[30] = second compound 0.1 µM, first compound 10 µM
[31] = second compound 0.316 µM, first compound 10 µM
[32] = second compound 1 µM, first compound 10 µM
[33] = second compound 3.16 µM, first compound 10 µM
[34] = second compound 10 µM, first compound 10 µM
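Also: drug exposure lasted seven days.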
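For viability, T/C in this document: 100% = DMSO vehicle wells and lower means fewer viable cells.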

Row | SMILES | IC50 (second compound 0.1 µM) | IC50 (second compound 0.316 µM) | IC50 (second compound 1 µM) | IC50 (second compound 3.16 µM) | viability, T/C [2] | viability, T/C [3] | viability, T/C [4] | viability, T/C [5] | viability, T/C [6] | viability, T/C [8] | viability, T/C [9] | viability, T/C [10] | viability, T/C [11] | viability, T/C [12] | viability, T/C [14] | viability, T/C [15] | viability, T/C [16] | viability, T/C [17] | viability, T/C [18] | viability, T/C [20] | other results
1 | CC1COCCN1c1cc(-c2ccnn2C)c2ccnc(-c3ccn[nH]3)c2n1 (stereo not given) + C=CC(=O)N1CCN(c2nc(=O)n(-c3c(C)ccnc3C(C)C)c3nc(-c4c(O)cccc4F)c(F)cc23)C(C)C1 | > 3.16 µM | > 3.16 µM | > 3.16 µM | > 3.16 µM | 91% | 76.7% | 77.9% | 73% | 82.7% | 98.4% | 87.8% | 95.1% | 88% | 91.9% | 111% | 96% | 84.5% | 79.6% | 91.9% | 96.9% | IC50 (second compound 10 µM): > 3.16 µM; viability, T/C [1]: 97.3%; viability, T/C [7]: 95%; viability, T/C [13]: 91.7%; viability, T/C [19]: 88.4%; viability, T/C [21]: 88.4%; viability, T/C [22]: 79.3%; viability, T/C [23]: 69.4%; viability, T/C [24]: 82.2%; viability, T/C (second compound 10 µM, first compound 0.01 µM): 77.6%; viability, T/C [25]: 69.5%; viability, T/C [26]: 71%; viability, T/C [27]: 57.2%; viability, T/C [28]: 67.2%; viability, T/C [29]: 66.9%
2 | CC1OCC2(CCN(c3cnc(Sc4ccnc(N)c4Cl)c(N)n3)CC2)C1N (stereo not given) + C=CC(=O)N1CCN(c2nc(=O)n(-c3c(C)ccnc3C(C)C)c3nc(-c4c(O)cccc4F)c(F)cc23)C(C)C1 | > 10 µM | > 10 µM | > 10 µM | > 10 µM | 99.6% | 93.6% | 99.6% | 92% | 106% | 97.3% | 94.4% | 91.9% | 96% | 113% | 98.7% | 103% | 102% | 90.4% | 124% | 97.7% | IC50 (second compound 10 µM): > 10 µM; viability, T/C [30]: 128%; viability, T/C [31]: 116%; viability, T/C [32]: 120%; viability, T/C [21]: 95.9%; viability, T/C [22]: 91.8%; viability, T/C [23]: 81.3%; viability, T/C [24]: 106%; viability, T/C [33]: 108%; viability, T/C [25]: 75%; viability, T/C [26]: 75%; viability, T/C [27]: 62.5%; viability, T/C [28]: 54.8%; viability, T/C [29]: 70.4%; viability, T/C [34]: 79%
3 | CCNC(=O)CC1N=C(c2ccc(Cl)cc2)c2cc(OC)ccc2-n2c(C)nnc21 (stereo not given) + C=CC(=O)N1CCN(c2nc(=O)n(-c3c(C)ccnc3C(C)C)c3nc(-c4c(O)cccc4F)c(F)cc23)C(C)C1 | > 10 µM | > 10 µM | > 10 µM | 0.93 µM | 88.2% | 93.7% | 79.9% | 78.5% | 81.6% | 103% | 105% | 79.3% | 72.2% | 83.3% | 112% | 108% | 83.2% | 81.1% | 66.5% | 89.3% | IC50 (second compound 10 µM): 0.266 µM; viability, T/C [30]: 78.6%; viability, T/C [31]: 70.6%; viability, T/C [32]: 68.7%; viability, T/C [21]: 83%; viability, T/C [22]: 65.6%; viability, T/C [23]: 49.8%; viability, T/C [24]: 40.7%; viability, T/C [33]: 45.3%; viability, T/C [25]: 72.1%; viability, T/C [26]: 68.4%; viability, T/C [27]: 46.2%; viability, T/C [28]: 35.5%; viability, T/C [29]: 33.7%; viability, T/C [34]: 29.2%
4 | CC(=O)OC12COC1CC(O)C1(C)C(=O)C(O)C3=C(C)C(OC(=O)C(O)C(NC(=O)OC(C)(C)C)c4ccccc4)CC(O)(C(OC(=O)c4ccccc4)C21)C3(C)C (stereo not given) + C=CC(=O)N1CCN(c2nc(OCC3CCCN3C)nc3c2CCN(c2cccc4cccc(C)c24)C3)CC1CC#N | > 3.16 µM | > 3.16 µM | > 3.16 µM | > 3.16 µM | 78.7% | 70.4% | 81.7% | 95% | 130% | 52.9% | 68.8% | 75.1% | 81.3% | 87.9% | 82.2% | 82.7% | 83.3% | 113% | 112% | 81.4% | IC50 (second compound 0.0316 µM): > 3.16 µM; viability, T/C (second compound 0.0316 µM, first compound 0.01 µM): 83.9%; viability, T/C (second compound 0.0316 µM, first compound 0.0316 µM): 72.8%; viability, T/C (second compound 0.0316 µM, first compound 0.1 µM): 71.7%; viability, T/C (second compound 0.0316 µM, first compound 0.316 µM): 80.5%; viability, T/C (second compound 0.0316 µM, first compound 1 µM): 93%; viability, T/C (second compound 0.0316 µM, first compound 3.16 µM): 110%; viability, T/C [1]: 79.6%; viability, T/C [7]: 69.2%; viability, T/C [13]: 71%; viability, T/C [19]: 83.2%; viability, T/C [21]: 76.8%; viability, T/C [22]: 74.3%; viability, T/C [23]: 102%; viability, T/C [24]: 107%
